Assay results from article PMC5444710, “Enhancement of radiosensitivity by the novel anticancer quinolone derivative vosaroxin in preclinical glioblastoma models” (Oncotarget, 2017).

How the values were obtained:
[1] = test system: P-glycoprotein drug pumps; set-up: method as in PMID 23688047; conditions: cited from earlier work
U251 xenografts = experiment: Subcutaneous xenograft model: tumor weight and time to progression; type: in vivo, female CD1-nu/nu mice; conditions: for HR (95% CI) for tumor progression: U251
Method: (§1) Female CD1-nu/nu mice, at 6 weeks of age, were purchased from Charles River (Milan, Italy) under the guidelines established by our institution (University of L’Aquila, Medical School and Science and Technology School Board Regulations, complying with Italian government regulation n.116, January 27, 1992, for the use of laboratory animals). All mice received subcutaneous flank injections (2 each) of 1 × 10^6 U251, U87MG, and T98G cells representing models for MGMT-negative and MGMT-positive cells. Tumor growth was assessed biweekly by measuring tumor diameters with a Vernier caliper (length × width). Tumor weight was calculated according to the formula tumor weight (mg) = tumor volume (mm^3) = d2 × D/2, where d and D are the shortest and longest diameters, respectively. The effects of the treatments were assessed as previously described. At about 10 days after the tumor injection, 30 mice with tumor volumes of 0.5–0.8 cm^3 were randomly divided into 6 groups (5 mice per group with 2 tumors each): (1) control (vehicle); (2) vosaroxin (10 mg/kg every 5 days for 5 weeks intravenous [IV] injection into tail vein; (3) radiotherapy (RT; 4 Gy delivered in a single fraction); (4) vosaroxin in combination with RT; (5) temozolomide (16 mg/kg 5 consecutive days) and (6) temozolomide in combination with RT. Anesthetized tumor-bearing mice received focal irradiation. Irradiation was delivered using an x-ray linear accelerator at a dose rate of 200 cGy/min at room temperature. All mice were shielded with a specially designed lead apparatus to allow irradiation to the right hind limb. At the end of the study (35 days after the start of treatments), animals were sacrificed by carbon dioxide inhalation and tumors were then removed surgically. Half of the tumor was directly frozen in liquid nitrogen for protein analysis and the other half was fixed in paraformaldehyde overnight for immunohistochemical analyses.
(§2) The following parameters were used to quantify the antitumor effects of different treatments as previously described: tumor volume, measured throughout the experiment; tumor weight, measured at the end of the experiment; tumor progression, defined as an increase of greater than 50% of tumor volume with respect to baseline; and time to progression (TTP), defined as the time until tumor progression was observed from baseline. Tumor size was measured with calipers and the TTP of a single tumor was calculated. TTP data were used to generate Kaplan-Meier curves for progression. This method of analysis was described previously, and may reduce both inter-subject variability resulting from differences in engraftment efficacy as well as intra-subject variability in response.
(§3) In vivo drug combination studies were evaluated using CalcuSyn. For CI calculations of dual administration, the values of % cell kill (%CK) for a fixed tumor volume were determined by the log CK (LCK). LCK was calculated as LCK = (T − C) / (3.32 × Td), where Td represented the mean control group doubling time required to reach a fixed tumor volume, expressed in days. T and C were the mean times in days required to reach the same fixed tumor volume in the treated group and the control group, respectively. CK was calculated as %CK = [1 − (1 − 10LCK)] × 100. Tumor growth delay (TGD) was calculated as %TGD = [(T − C) / C] × 100, where T and C were the same values as those reported by Bruzzese et al..

T98G xenografts = experiment: as above; type: in vivo, female CD1-nu/nu mice; conditions: for HR (95% CI) for tumor progression: T98G
Method: as §1, §2, §3

U87MG xenografts = experiment: as above; type: in vivo, female CD1-nu/nu mice; conditions: for HR (95% CI) for tumor progression: U87MG
Method: as §1, §2, §3

[2] = test system: 13 human glioma cell lines and three patient-derived glioblastoma stem cell lines; experiment: Cell viability / growth inhibition, whole panel; type: cell-based
Method: Cells were seeded at a density of 2 × 10^4 cells/mL in 24-well plates. Cells were […] to attach and grow in 5% fetal bovine serum in DMEM for 24 hours. Cells were treated with different doses of radiation or temozolomide and then maintained in the appropriate culture conditions. At the conclusion of the treatment period, cells were trypsinized and resuspended in 1.0 mL of saline; viable cells were counted using the NucleoCounter^TM NC-100 (Chemotec, […], Denmark). All experiments were conducted in triplicate. IC50 values were calculated using GraFit (Erithacus Software Limited, Staines, UK).

[3] = test system: U87MG, U251, and T98G cells; experiment: Autophagy: acidic vesicular organelle (AVO) staining; type: cell-based, human; conditions: vosaroxin at IC20 for each cell line added to RT 4 Gy; 24 hours
From the text: As a marker of autophagy we evaluated the presence of AVOs after staining of cell cultures with LysoTracker® Red DND-99 kit (Life Technologies Italia, Monza, Italy) according to the manufacturer’s instructions. The intensity of the red fluorescence is proportional to the degree of acidity. The percentage of autophagic cells was quantified with the Tali® Image-Based Cytometer (Life Technologies) measuring fluorescence emission at 590 nm with fluorescence excitation at 577 nm. The results were expressed as the percentage of cell AVOs stained in controls and in treated cultures.

CN[C@H]1CN(c2ccc3c(=O)c(C(=O)O)cn(-c4nccs4)c3n2)C[C@@H]1OC [vosaroxin]
substrate for P-glycoprotein drug pumps [1]: not a substrate | final tumor weight reduction compared with vehicle controls (U251 xenografts; U251 xenografts, day 35, VSR 10 mg/kg q 5 d for 5 wk IV, TMZ 16 mg/kg 5 consecutive days, RT single 4 Gy): 42% | HR (95% CI) for tumor progression (U251 xenografts; VSR vs TMZ + RT): 4.2 (1.4–12.5) | HR (95% CI) for tumor progression (U251 xenografts; VSR vs TMZ): 0.6 (0.3–1.6) | HR (95% CI) for tumor progression (U251 xenografts; VSR vs VSR + RT): 4.0 (1.3–12.1) | final tumor weight reduction compared with vehicle controls (T98G xenografts; T98G xenografts, day 35, VSR 10 mg/kg q 5 d for 5 wk IV, TMZ 16 mg/kg 5 consecutive days, RT single 4 Gy): 60% | HR (95% CI) for tumor progression (T98G xenografts; VSR vs TMZ + RT): 1.0 (0.4–2.4) | HR (95% CI) for tumor progression (T98G xenografts; VSR vs TMZ): 0.5 (0.2–1.3) | HR (95% CI) for tumor progression (T98G xenografts; VSR vs VSR + RT): 4.7 (1.5–14.6) | final tumor weight reduction compared with vehicle controls (U87MG xenografts; U87MG xenografts, day 35, VSR 10 mg/kg q 5 d for 5 wk IV, TMZ 16 mg/kg 5 consecutive days, RT single 4 Gy): 44% | HR (95% CI) for tumor progression (U87MG xenografts; VSR vs TMZ + RT): 0.8 (0.3–2.0) | HR (95% CI) for tumor progression (U87MG xenografts; VSR vs TMZ): 0.6 (0.2–1.5) | HR (95% CI) for tumor progression (U87MG xenografts; VSR vs VSR + RT): 4.3 (1.2–15.6) | IC20 ([2]; Glioma cell, glioma cells used in clonogenic studies, read-out: IC20 values in growth inhibition assays, range): 10 to 100 nM | IC50 ([2]; read-out: IC50 values, range over all cell lines tested): 12.8 to 260 nM | RT-induced AVO staining [3]: reduced
